# Measurements taken from PubChem BioAssay AID1996.
# Conditions: buffer; pH 7.4; 200.0 µM
row,Structure (SMILES),solubility kinetic
1,Cc1cccc(Oc2nc(-c3ccccn3)nc3ccccc23)c1,27.6 µg/mL
2,CN(C)C(CNC(=O)CSC(=S)N1CCCC1)c1ccccc1 (stereo not drawn),> 52.7 µg/mL
3,CC(C)(C)c1cc(CCC(=O)NCC2CCCO2)cc(C(C)(C)C)c1O (stereo not drawn),20.2 µg/mL
4,O=C(/C=C/c1ccco1)NCCCN1CCOCC1,> 39.6 µg/mL
5,Cc1oc(C(C)(C)C)cc1C(=O)Nc1ccc(N2CCOCC2)cc1,4.3 µg/mL
6,Cc1ccc(C(=O)OCC(=O)c2ccc[nH]2)s1,> 37.4 µg/mL
7,O=C(O)CCC(=O)Nc1nc2ccc([N+](=O)[O-])cc2s1,> 44.3 µg/mL
8,Cc1ccc(S(=O)(=O)NCc2csc(C)n2)cc1,> 42.4 µg/mL
9,CSc1ncc(C(C)=O)c(C)n1,> 27.3 µg/mL
10,CCOP(=O)(OCC)C1NC(=O)N(c2ccccc2)C1=O (stereo not drawn),> 46.8 µg/mL
11,Cc1cc(NC(=O)c2ccccc2)ccc1NC(=O)Cc1ccccc1,0.8 µg/mL
12,CC12CC3CC(C)(C1)CC(NCc1ccncc1)(C3)C2.Cl,> 46 µg/mL
13,O=S(=O)(c1ccc(Cl)cc1)N1CCC2(CC1)OCCO2,> 47.7 µg/mL
14,COc1cccc(/C=N/NC(=O)CNC(=O)COc2ccccc2)c1O,> 53.6 µg/mL
15,O=C(COC(=O)/C=C/c1cccc(Cl)c1)Nc1ccc(N2CCOCC2)cc1,3.2 µg/mL
16,Cc1nnc(SCC(=O)Nc2cccc(N)c2)n1-c1ccccc1,> 50.9 µg/mL
17,Cn1cccc1/C=C1/C(=O)NC(=O)N(C(C)(C)C)C1=O,37.1 µg/mL
18,C=CCn1c(O)c(C(C)=NCCCn2ccnc2)c(=O)[nH]c1=O,> 47.6 µg/mL
19,COc1cc(C(=O)NCC(=O)Nc2c(C)cccc2C)ccc1OCC(=O)N1CCOCC1,> 68.3 µg/mL
20,O=C(CNC(=O)c1ccc(Cl)cc1)NCc1ccccn1,> 45.6 µg/mL
21,COc1cccc(/C=C(\C)C(=O)c2c(C)cc(C)[nH]c2=O)c1OC,> 49.1 µg/mL
22,COc1cc(C(=O)N2c3ccccc3CCC2C)cc(OC)c1OC (stereo not drawn),32.8 µg/mL
23,COC(=O)c1[nH]c2c(c1C)C(=O)CC(c1ccc(OC)cc1)C2 (stereo not drawn),2.7 µg/mL
24,Fc1cccc(CN2CCSCC2)c1,6.3 µg/mL

row,Structure (SMILES),solubility kinetic
1,Cn1cccc1C1C(C#N)=C(N)OC2=C1C(=O)CCC2 (stereo not drawn),> 40.4 µg/mL
2,CC(C)(C)c1cc2ncnc(N3CCCCC3)c2s1,10.5 µg/mL
3,O=C(Nc1ccccc1Cl)Nc1cccc2cccnc12,< 0.2 µg/mL
4,CC1CN(C(=O)c2ccc(NS(=O)(=O)c3ccc(C(C)(C)C)cc3)cc2)CC(C)O1 (stereo not drawn),48 µg/mL
5,Cc1ccc(C)c(N2C(=O)C3C4C=CC(CC4)C3C2=O)c1 (stereo not drawn),14.9 µg/mL
6,Cn1c(=O)n(CC(N)=O)c(=O)c2c1nc(Br)n2Cc1ccccc1,> 58.8 µg/mL
7,CC1CCCCC1NC(=O)COC(=O)c1cccn1C (stereo not drawn),> 41.8 µg/mL
8,O=C1CCNc2c(Cl)cccc21,20.9 µg/mL
9,Cc1ccc(CC2C(=O)N(c3nc(C)cc(C)n3)C(=O)C2C)cc1 (stereo not drawn),> 48.5 µg/mL
10,CCOc1ccc(NC(=O)N(C2CCCC2)C2CCN(C(C)=O)CC2)cc1,> 56 µg/mL
11,O=C(CN1C(=O)NC(Cc2c[nH]c3ccccc23)C1=O)Nc1ccc(F)cc1F (stereo not drawn),19 µg/mL
12,CCn1cnc2c(oc3ccccc32)c1=O,31.9 µg/mL
13,COc1ccc(NC(=O)c2ccc3c(c2)NC(=O)CO3)cc1OC,10.2 µg/mL
14,Br.CCCCCCCCCCn1ccc(=N)cc1,> 47.3 µg/mL
15,O=C(CSc1ncnc2ccccc12)NCC(=O)c1ccccc1,7.1 µg/mL
16,Cc1ccc(OCCCCCCN2CCNCC2)cc1.O=C(O)C(=O)O,> 55 µg/mL
17,COc1ccccc1-n1cnc2cc(NCc3ccccc3O)ccc21,12.6 µg/mL
18,N#Cc1cccc(NC(=O)Cc2ccccc2)c1,> 35.4 µg/mL
19,COc1ccc(NC(=O)COC(=O)CCSc2ccccc2)cc1OC,55.5 µg/mL
20,CC1CCCN(c2nc(N(C)c3ccccc3)nc(N)c2[N+](=O)[O-])C1 (stereo not drawn),4.5 µg/mL
21,COc1ccc2cc(C#N)c(SCC(=O)Nc3nonc3C)nc2c1,3.4 µg/mL
22,Cc1cc(=O)[nH]c(Nc2ccc(N(C)C)cc2)n1,> 36.6 µg/mL
23,COc1ccc(NC(=O)COc2ccc3c(c2)CCC3)cc1,2.7 µg/mL
24,N=C1C(c2nc3ccccc3[nH]2)=C(O)CN1C1CCCCC1,0.4 µg/mL

row,Structure (SMILES),solubility kinetic
1,COc1ccc2[nH]c3c(NCCCOC(C)C)ncnc3c2c1,44.7 µg/mL
2,CCc1cccc(NC(=O)c2cc(OC)c(OC)c(OC)c2)c1,34.2 µg/mL
3,COc1ccc2cc(C(N)=O)c(=Nc3ccc(C)cc3)oc2c1,< 0.3 µg/mL
4,CNC(=O)c1c(NC(=O)c2ccco2)sc2c1CCC2,3.3 µg/mL
5,CC(=O)Nc1cccc(Oc2nc(C(F)(F)F)nc3ccccc23)c1,14 µg/mL
6,COc1ccc(CNC(=O)c2cc(SC)ccc2Cl)cc1OC,49.1 µg/mL
7,CC(OC(=O)CSc1ccc(F)cc1)C(=O)NC1(C#N)CCCCC1 (stereo not drawn),42.2 µg/mL
8,CCn1c(CCc2ccccc2)nc2ccccc21.Cl,28.4 µg/mL
9,Cc1ccc(NC(=O)c2ccco2)c(NC(=O)c2ccccc2)c1,4.1 µg/mL
10,CCCN1CCN(C(=O)CCCNC(=O)c2ccc(Cl)cc2)CC1,> 52.8 µg/mL
11,CCCCOc1ccc(-c2ncc([N+](=O)[O-])cn2)cc1,< 0.2 µg/mL
12,COc1cc(C)c(S(=O)(=O)NOCc2ccccc2)c(C)c1C,5.5 µg/mL
13,COc1cccc(C(=O)Nc2cc(C)on2)c1OC,34 µg/mL
14,CN(C)S(=O)(=O)c1cccc(COc2cccnc2[N+](=O)[O-])c1,12.1 µg/mL
15,Cc1ccc(C(=O)OCC(=O)NC2CCCC2)cc1C,15.8 µg/mL
16,Cc1ccc2nc(N3CCCCC3)c(C=O)c(=O)n2c1,39.1 µg/mL
17,CC(=O)c1ccc(S(=O)(=O)N2CCNC(=O)C2)cc1,> 42.3 µg/mL
18,CCCc1cc(=O)[nH]c(Nc2ccc(Cl)cc2)n1,4.4 µg/mL
19,Cc1cccn2cc(CCNC(=O)c3cccs3)nc12,> 42.8 µg/mL
20,O=C(CCC(=O)c1ccc(-c2ccccc2)cc1)Nc1cccnc1,0.7 µg/mL
21,O=C1CSC(c2cccnc2)N1Cc1ccc(Cl)c(Cl)c1 (stereo not drawn),48.7 µg/mL
22,Clc1ccccc1OCCCCN1CCNCC1.O=C(O)C(=O)O,> 53.8 µg/mL
23,Cc1cc(NC(=O)/C=C\C(=O)O)c([N+](=O)[O-])cc1C,39.4 µg/mL
24,Cc1cc(C)nc(N2C(=O)CC(Cc3ccc(Cl)cc3)C2=O)n1 (stereo not drawn),> 49.5 µg/mL

row,Structure (SMILES),solubility kinetic
1,Cc1ccc(S(=O)(=O)Nc2ccc3[nH]ccc3c2)cc1,> 43 µg/mL
2,CC(=O)/C(C#N)=C1\NC(=O)C(Cc2ccc(C)c(Cl)c2)S1 (stereo not drawn),> 48.1 µg/mL
3,COc1ccc(NC(=O)/C=C/C(=O)O)c(OC)c1,37 µg/mL
4,CC1CCCCC1NC(=O)COc1ccccc1C#N (stereo not drawn),> 40.9 µg/mL
5,CC1CCN(S(=O)(=O)c2ccc(NC(=O)C3CC3)cc2)CC1,37.2 µg/mL
6,Cc1cccc(NC(=O)c2ccc3c(c2)OCCO3)c1C,22.1 µg/mL
7,O=C1N(c2ccccc2)C(c2cccnc2)N2CCCN12 (stereo not drawn),> 42 µg/mL
8,COc1ccc(C(C)=NNc2ccc([N+](=O)[O-])cc2S(=O)(=O)Nc2ccccc2C(=O)O)c(OC)c1,> 77.2 µg/mL
9,Cc1ccc(C2(C)NC(=O)N(CC(=O)N3CC(=O)Nc4ccccc43)C2=O)cc1 (stereo not drawn),0.4 µg/mL
10,O=C(CCS(=O)(=O)c1ccc(Cl)cc1)NC1CCCC1,> 47.4 µg/mL
11,COc1cccc(C(=O)Nc2ccc3ccccc3c2)c1,1.6 µg/mL
12,Nc1ccc(C2(c3ccc(N)cc3)OC(=O)c3ccccc32)cc1,32.1 µg/mL
13,OCCC1CN(CCCc2ccccc2)CCN1Cc1ccccc1 (stereo not drawn),> 50.8 µg/mL
14,CN(Cc1ccccc1)C(=O)CN(C)S(=O)(=O)c1ccc(F)cc1,> 52.6 µg/mL
15,O=C(CSCc1c(F)cccc1Cl)NCCSCc1ccco1,36.8 µg/mL
16,O=C(NC(=S)Nc1ccc(O)cc1)c1cncc(Br)c1,> 52.8 µg/mL
17,O=C(COC(=O)c1ccc([N+](=O)[O-])o1)Nc1ccc(Br)cc1F,21 µg/mL
18,COc1ccc2[nH]cc(C(O)CN3CCN(c4ccccc4F)CC3)c2c1 (stereo not drawn),> 55.4 µg/mL
19,CCCc1nc(-c2cc3ccccc3[nH]c2=O)no1,> 38.3 µg/mL
20,COc1ccc(C(O)Cc2nccn2C)cc1 (stereo not drawn),> 34.8 µg/mL
21,CCCc1cc(=O)[nH]c(SCC(=O)Nc2ccc(N3CCCCC3)cc2)n1,16.6 µg/mL
22,O=C(CNC(=O)Cc1ccccc1)NCc1cccs1,41.9 µg/mL
23,Cc1ccc(Nc2cc(C)nc3c(C)cccc23)cc1,35 µg/mL
24,Cn1c(/C=C/c2cccc([N+](=O)[O-])c2)nc2ccccc2c1=O,< 0.2 µg/mL

row,Structure (SMILES),solubility kinetic
1,N#Cc1cccc(CN2C=NS(=O)(=O)c3ccccc32)c1,42.2 µg/mL
2,Cc1c(CC(=O)Nc2ccc(Cl)cc2)sc2ccc(Cl)cc12,< 0.8 µg/mL
3,COc1cccc(N2CCN(C(=O)c3cc4ccc(OC)cc4[nH]3)CC2)c1,1.6 µg/mL
4,O=C(NCc1ccncc1)Nc1cccc([N+](=O)[O-])c1,> 40.8 µg/mL
5,O=C(CCc1ccccc1)Nc1cccc(S(=O)(=O)N2CCOCC2)c1,50.6 µg/mL
6,O=S(=O)(/N=C/c1c(O)ccc2ccccc12)c1ccccc1,> 46.7 µg/mL
7,O=C(CSc1cc(Cl)ccc1Cl)NC1CCCC1,3.6 µg/mL
8,CCN1CCN(C(=S)NC(=O)c2cc(OC)c(OC)c(OC)c2)CC1,> 55.1 µg/mL
9,CC(C)(C)C(=O)NC(=S)Nc1cccc(C(=O)O)c1,> 42.1 µg/mL
10,CSCCC1NC(=O)N(CC(=O)Nc2cc(C)on2)C1=O (stereo not drawn),> 46.9 µg/mL
11,CC1CCN(C2=NC(=O)/C(=C/c3ccccc3F)S2)CC1,14.3 µg/mL
12,Cc1cc(C(=O)N2CCCc3ccccc32)ccc1[N+](=O)[O-],34.7 µg/mL
13,O=C(NC1CCCC1)c1cc(-c2ccccc2Cl)on1,2.2 µg/mL
14,CCC(=O)c1ccc(OCC(=O)OCC(=O)Nc2ccc3c(c2)OCCO3)cc1,18.8 µg/mL
15,CCOC(=O)C1CCN(C(=O)Nc2ccc(C)c(Cl)c2)CC1,6.9 µg/mL
16,Cc1ccccc1CC(=O)Nc1ccc2c(c1)CCC2,< 0.6 µg/mL
17,O=C1CCc2ccc(OCCCCN3CCN(c4cccc(Cl)c4Cl)CC3)cc2N1,< 0.3 µg/mL
18,O=[N+]([O-])c1ccc(SCc2ccco2)cc1N1CCOCC1,13.2 µg/mL
19,CCOc1ccc(C(=O)NC(C)CCc2ccccc2)cc1 (stereo not drawn),2.5 µg/mL
20,NC(=O)c1ccccc1NCC(=O)c1ccc(Cl)cc1,2.9 µg/mL
21,O=C(COc1ccc(Cl)cc1)Nc1ccc2c(c1)OCO2,< 0.7 µg/mL
22,Cc1cccc2c3c([nH]c12)CCNC3.Cl,> 33.4 µg/mL
